Test results: patent US7332501B2, “Indol-3-yl-carbonyl-spiro-piperidine derivatives as V1a receptor antagonists” (Hoffmann-La Roche Inc., priority 2005, dated 2008)
Counter-ions that a name gives are not always drawn.

target: T1, human V1a receptor (Homo sapiens, UniProt P37288); assay: human V1a receptor binding (3H-Vasopressin SPA, HEK293 membranes); details: displacement of 4 nM 3H-Vasopressin, membranes of HEK293 cells transiently transfected with human V1a receptor; Ki from IC50 by Cheng-Prussoff
T1 construct: expressed in transfected cells; host or cells: HEK293 cells, transiently transfected; cell membranes
T1 sequence (P37288 whole entry): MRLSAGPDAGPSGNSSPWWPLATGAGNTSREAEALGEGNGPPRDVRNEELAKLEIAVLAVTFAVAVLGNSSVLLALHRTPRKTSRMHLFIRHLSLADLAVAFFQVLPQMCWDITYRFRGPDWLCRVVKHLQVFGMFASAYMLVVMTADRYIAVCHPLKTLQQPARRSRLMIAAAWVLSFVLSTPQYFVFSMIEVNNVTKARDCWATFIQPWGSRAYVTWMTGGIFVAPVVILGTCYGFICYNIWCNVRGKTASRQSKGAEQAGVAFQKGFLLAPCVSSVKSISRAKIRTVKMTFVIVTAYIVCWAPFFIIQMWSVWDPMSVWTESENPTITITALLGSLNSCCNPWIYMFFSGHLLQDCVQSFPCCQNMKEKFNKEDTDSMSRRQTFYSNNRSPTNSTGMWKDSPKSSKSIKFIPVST
Procedure, shortened: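 Ki derived by Cheng-Prusoff from IC50 curves normalised to specific binding. Serially diluted compounds (in 2% DMSO) competed with 3H-vasopressin (4 nM working solution) for 1 h at room temperature on SPA beads bearing membranes of transiently transfected HEK293 cells; unlabelled vasopressin defined non-specific counts.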

| Structure (SMILES) | Ki [nM] |
| --- | --- |
| O=C1OC2(CCN(C(=O)c3cn(CC4CNCCO4)c4cc(Cl)ccc34)CC2)c2ccc(F)cc21 (stereo not shown) [Example 200, 1′-{[6-Chloro-1-(morpholin-2-ylmethyl)-1H-indol-3-yl]carbonyl}-5-fluoro-3H-spiro[2-benzofuran-1,4′-piperidin]-3-one dihydrochloride] | 5.8 |
| Cc1c(C(=O)N2CCC3(CC2)OCc2ccccc23)c2ccccc2n1CC1CCCCC1 [Example 46, 1′-{[1-(cyclohexylmethyl)-2-methyl-1H-indol-3-yl]carbonyl}-3H-spiro[2-benzofuran-1,4′-piperidine]] | 0.8 |
| O=C(c1c[nH]c2cc(Cl)ccc12)N1CCC2(CC1)OCc1ccccc12 [Example 69, 1′-[(6-chloro-1H-indol-3-yl)carbonyl]-3H-spiro[2-benzofuran-1,4′-piperidine]] | 4.3 |
| Cc1cc(Cn2cc(C(=O)N3CCC4(CC3)OCc3ccccc34)c3ccc(Cl)cc32)on1 [Example 239, 1′-({6-Chloro-1-[(3-methylisoxazol-5-yl)methyl]-1H-indol-3-yl}carbonyl)-3H-spiro[2-benzofuran-1,4′-piperidine]] | 2.3 |
| O=C1OC2(CCN(C(=O)c3cn(Cc4ccccn4)c4cc(Cl)ccc34)CC2)c2ccc(F)cc21 [Example 171, 1′-{[6-Chloro-1-(pyridin-2-ylmethyl)-1H-indol-3-yl]carbonyl}-5-fluoro-3H-spiro[2-benzofuran-1,4′-piperidin]-3-one] | 2.7 |
| O=C(c1cn(CC2CCOCC2)c2cc(Cl)ccc12)N1CCC2(CC1)OCc1ccccc12 [Example 263, 1′-{[6-Chloro-1-(tetrahydro-2H-pyran-4-ylmethyl)-1H-indol-3-yl]carbonyl}-3H-spiro[2-benzofuran-1,4′-piperidine]] | 1.7 |
| O=C(c1cn(CC2(F)COC2)c2cc(Cl)ccc12)N1CCC2(CC1)OCc1ccccc12 [Example 243, 1′-({6-Chloro-1-[(3-fluorooxetan-3-yl)methyl]-1H-indol-3-yl}carbonyl)-3H-spiro[2-benzofuran-1,4′-piperidine]] | 1.4 |
| O=C(Cn1cc(C(=O)N2CCC3(CC2)OC(=O)c2ccccc23)c2ccc(Cl)cc21)c1ccccc1F [Example 153, 1′-({6-Chloro-1-[2-(2-fluorophenyl)-2-oxoethyl]-1H-indol-3-yl}carbonyl)-3H-spiro[2-benzofuran-1,4′-piperidin]-3-one] | 1 |
| Cc1c(C(=O)N2CCC3(CC2)OC(=O)c2ccccc23)c2ccccc2n1Cc1ccccc1 [Example 126, 1′-[(1-Benzyl-2-methyl-1H-indol-3-yl)carbonyl]-3H-spiro[2-benzofuran-1,4′-piperidin]-3-one] | 3 |
| O=C(c1cn(CCN2CCOCC2)c2cc(Cl)ccc12)N1CCC2(CC1)COc1ccccc12 [Example 84, 1′-{[6-chloro-1-(2-morpholin-4-ylethyl)-1H-indol-3-yl]carbonyl}spiro[1-benzofuran-3,4′-piperidine]] | 3.6 |
| Cc1c(C(=O)N2CCC3(CCc4ccccc43)CC2)c2ccccc2n1Cc1ccccc1 [Example 2, 1′-[(1-benzyl-2-methyl-1H-indol-3-yl)carbonyl]-2,3-dihydrospiro[indene-1,4′-piperidine]] | 16.2 |
| O=C1OC2(CCN(C(=O)c3cn(C(=O)N4CCCCC4)c4cc(Cl)ccc34)CC2)c2ccccc21 [Example 108, 1′-{[6-Chloro-1-(piperidin-1-ylcarbonyl)-1H-indol-3-yl]carbonyl}-3H-spiro[2-benzofuran-1,4′-piperidin]-3-one] | 6.2 |
| COCC1(Cn2cc(C(=O)N3CCC4(CC3)OCc3ccccc34)c3ccc(Cl)cc32)CC1 [Example 244, 1′-[(6-Chloro-1-{[1-(methoxymethyl)cyclopropyl]methyl}-1H-indol-3-yl)carbonyl]-3H-spiro[2-benzofuran-1,4′-piperidine]] | 2.6 |
| CNC(=O)Cn1cc(C(=O)N2CCC3(CC2)OCc2ccccc23)c2ccc(Cl)cc21 [Example 255, 2-[6-Chloro-3-(1′H,3H-spiro[2-benzofuran-1,4′-piperidin]-1′-ylcarbonyl)-1H-indol-1-yl]-N-methylacetamide] | 1.4 |
| O=C(c1cn(-c2cc(F)cc(F)c2)c2cc(Cl)ccc12)N1CCC2(CC1)OCc1ccccc12 [Example 222] | 4 |
| N#CCC1(Cn2cc(C(=O)N3CCC4(CC3)OC(=O)c3cc(F)ccc34)c3ccc(Cl)cc32)CC1 [Example 191, [1-({6-Chloro-3-[(5-fluoro-3-oxo-1′H,3H-spiro[2-benzofuran-1,4′-piperidin]-1′-yl)carbonyl]-1H-indol-1-yl}methyl)cyclopropyl]acetonitrile] | 2.8 |
| O=C1OC2(CCN(C(=O)c3cn(C(=O)c4cc(F)cc(F)c4)c4cc(Cl)ccc34)CC2)c2ccccc21 [Example 130, 1′-{[6-Chloro-1-(3,5-difluorobenzoyl)-1H-indol-3-yl]carbonyl}-3H-spiro[2-benzofuran-1,4′-piperidin]-3-one] | 11.1 |
| O=C(c1cn(C(=O)c2cccc(F)c2F)c2cc(Cl)ccc12)N1CCC2(CC1)OCc1ccccc12 [Example 217] | 5.8 |
| Cc1c(C(=O)N2CCC3(C=Cc4ccccc43)CC2)c2ccccc2n1Cc1ccccc1 [Example 1, 1′-[(1-benzyl-2-methyl-1H-indol-3-yl)carbonyl]spiro[indene-1,4′-piperidine]] | 6.8 |
| O=C(c1cn(C(=O)N2CCCCC2)c2cc(Cl)ccc12)N1CCC2(CC1)OCc1ccccc12 [Example 208, 1′-{[6-Chloro-1-(piperidin-1-ylcarbonyl)-1H-indol-3-yl]carbonyl}-3H-spiro[2-benzofuran-1,4′-piperidine]] | 2.6 |
| Cc1c(C(=O)N2C[C@@H](C)[C@]3(OC(=O)c4ccccc43)[C@@H](C)C2)c2ccccc2n1Cc1ccccc1 [Example 281, (1R,3′R,5′S)-1′-[(1-Benzyl-2-methyl-1H-indol-3-yl)carbonyl]-3′,5′-dimethyl-3H-spiro[2-benzofuran-1,4′-piperidin]-3-one] | 19.1 |
| CN1CCn2c(c(C(=O)N3CCC4(CC3)OCc3ccccc34)c3ccccc32)C1 [Example 276, 1′-[(2-Methyl-1,2,3,4-tetrahydropyrazino[1,2-a]indol-10-yl)carbonyl]-3H-spiro[2-benzofuran-1,4′-piperidine]] | 12 |

The remaining lines, values ahead:

| Ki [nM] | Structure (SMILES) |
| --- | --- |
| 0.8 | CN(C)C(=O)Cn1cc(C(=O)N2CCC3(CC2)OC(=O)c2cc(F)ccc23)c2ccc(Cl)cc21 [Example 110, 2-{6-Chloro-3-[(5-fluoro-3-oxo-1′H,3H-spiro[2-benzofuran-1,4′-piperidin]-1′-yl)carbonyl]-1H-indol-1-yl}-N,N-dimethylacetamide] |
| 4 | Cc1nc(Cn2cc(C(=O)N3CCC4(CC3)OCc3ccccc34)c3ccc(Cl)cc32)c(C2CC2)o1 [Example 237] |
| 1.8 | O=C(Cn1cc(C(=O)N2CCC3(CC2)OC(=O)c2ccccc23)c2ccc(Cl)cc21)c1cccc(F)c1 [Example 135, 1′-({6-Chloro-1-[2-(3-fluorophenyl)-2-oxoethyl]-1H-indol-3-yl}carbonyl)-3H-spiro[2-benzofuran-1,4′-piperidin]-3-one] |
| 5.6 | CN(C)CCn1cc(C(=O)N2CCC3(CC2)OCc2ccccc23)c2ccccc21 [Example 71, N,N-dimethyl-2-[3-(1′H,3H-spiro[2-benzofuran-1,4′-piperidin]-1′-ylcarbonyl)-1H-indol-1-yl]ethanamine] |
| 1.5 | O=C1OC2(CCN(C(=O)c3cn(Cc4ccccn4)c4cc(Cl)ccc34)CC2)c2ccccc21 [Example 180, 1′-{[6-Chloro-1-(pyridin-2-ylmethyl)-1H-indol-3-yl]carbonyl}-3H-spiro[2-benzofuran-1,4′-piperidin]-3-one] |
| 0.5 | Cc1c(C(=O)N2CCC3(CC2)OCc2ccccc23)c2ccccc2n1Cc1cccc(F)c1 [Example 47, 1′-{[1-(3-fluorobenzyl)-2-methyl-1H-indol-3-yl]carbonyl}-3H-spiro[2-benzofuran-1,4′-piperidine]] |
| 7.6 | O=C1OC2(CCN(C(=O)c3cn(-c4ccccn4)c4cc(Cl)ccc34)CC2)c2ccccc21 [Example 159, 1-[(6-Chloro-1-pyridin-2-yl-1H-indol-3-yl)carbonyl]-3H-spiro[2-benzofuran-1,4′-piperidin]-3-one] |
| 11 | Cc1[nH]c2ccccc2c1C(=O)N1CCC2(CC1)OCc1ccccc12 [Example 43, 1′-[(2-methyl-1H-indol-3-yl)carbonyl]-3H-spiro[2-benzofuran-1,4′-piperidine]] |
| 138 | O=C(c1c[nH]c2cc(Cl)ccc12)N1CCC2(CC1)NCc1ccccc12 [Example 284, 1′-[(6-Chloro-1H-indol-3-yl)carbonyl]-2,3-dihydrospiro[isoindole-1,4′-piperidine]] |
| 9.5 | Cc1c(C(=O)N2CCC3(CC2)OCc2ccccc23)c2ccccc2n1S(=O)(=O)c1ccccc1 [Example 45, 1′-{[2-methyl-1-(phenylsulfonyl)-1H-indol-3-yl]carbonyl}-3H-spiro[2-benzofuran-1,4′-piperidine]] |
| 2.5 | O=C(c1cn(-c2cccc(F)c2)c2cc(Cl)ccc12)N1CCC2(CC1)OCc1ccccc12 [Example 223] |
| 5.2 | Cc1[nH]c2cc(Cl)ccc2c1C(=O)N1CCC2(CC1)OCc1ccccc12 [Example 277, 1′-[(6-Chloro-2-methyl-1H-indol-3-yl)carbonyl]-3H-spiro[2-benzofuran-1,4′-piperidine]] |
| 3.5 | O=C(c1cn(C(=O)c2cc(F)cc(F)c2)c2cc(Cl)ccc12)N1CCC2(CC1)OCc1ccccc12 [Example 216] |
| 1.5 | Cc1noc(C)c1Cn1cc(C(=O)N2CCC3(CC2)OCc2ccccc23)c2ccc(Cl)cc21 [Example 241] |
| 1 | CC(C)(C)OC(=O)Cn1cc(C(=O)N2CCC3(CC2)OCc2ccccc23)c2ccc(Cl)cc21 [Example 209, tert-Butyl[6-chloro-3-(1′H,3H-spiro[2-benzofuran-1,4′-piperidin]-1′-ylcarbonyl)-1H-indol-1-yl]acetate] |
